Values quoted from earlier work as cited in patent US5989583A, “Solid lipid compositions of lipophilic compounds for enhanced oral bioavailability” (Pharmos Ltd., priority 1996, dated 1999).

Columns and labels:
[1] = for Water solubility (in words): water / aqueous solutions
periodontal disease = conditions: supplements containing CoQ10
[2] = test system: cultured cerebellar neurons; conditions: age-related and excitotoxin-induced degeneration
[3] = test system: patients with severe heart failure; conditions: 40 patients with severe heart failure, long term treatment
[4] = 20 mg THC in a sesame oil formulation

## CCCCCCC(C)(C)c1cc(O)c2c(c1)OC(C)(C)[C@H]1CC=C(CO)C[C@H]21 [Dexanabinol, (+)-(3S, 4S) -7-hydroxy-Δ^6-tetra hydrocannabinol-1,1-dimetylheptyl]
[1]; water
  Water solubility: less than 50 μg/ml
other
  oral bioavailability / systemic availability: poor oral bioavailability

## COC1=C(OC)C(=O)C(C/C=C(\C)CC/C=C(\C)CC/C=C(\C)CC/C=C(\C)CC/C=C(\C)CC/C=C(\C)CC/C=C(\C)CC/C=C(\C)CC/C=C(\C)CCC=C(C)C)=C(C)C1=O [CoQ10, 2,3-dimethoxy-5-methyl-6-decaprenyl-1,4-benzoquinone]
[1]
  Water solubility (in words): practically insoluble in water
Periodontal disease
  Effect on periodontal disease: the progress of the disease was not only stopped, but accelerated tissue healing was initiated as well
[2]
  Protection of neurons against degeneration: protect cultured cerebellar neurons against age-related and excitotoxin-induced degeneration
[3]
  patients showing improvement in their condition: 69%
other
  oral bioavailability / systemic availability: very low

## CCCCCc1cc(O)c2c(c1)OC(C)(C)[C@@H]1CCC(C)=C[C@@H]21 [Δ^1 -THC, Δ^1 -tetrahydrocannabinol]
[1]
  Water solubility (in words): a few micrograms/ml or less

## CCCCCc1cc(O)c2c(c1)OC(C)(C)[C@@H]1CC=C(C)C[C@@H]21 [Δ^6 -THC, Δ^6 -tetrahydrocannabinol]
[1]
  Water solubility (in words): a few micrograms/ml or less

## C=C(C)[C@@H]1CCC(C)=C[C@H]1c1c(O)cc(CCCCC)cc1O [cannabidiol]
[1]
  Water solubility (in words): a few micrograms/ml or less

## CCCCCc1cc(O)c2c(c1)OC(C)(C)c1ccc(C)cc1-2 [cannabinol]
[1]
  Water solubility (in words): a few micrograms/ml or less

## CCCCCc1cc(O)c2c(c1)OC(C)(C)[C@@H]1CCC(C)=C[C@@H]21 [THC, tetrahydrocannabinol]
[4]
  maximal plasma levels after oral dosing: around 10 ng/ml
